{"source": "ChEMBL document CHEMBL4118135", "about": "“Optimized allosteric inhibition of engineered protein tyrosine phosphatases with an expanded palette of biarsenical small molecules” (Bioorg Med Chem, 2018)", "key": {"[1]": {"tested_on": "Tyrosine-protein phosphatase non-receptor type 7 (Homo sapiens), P35236 [UNDEFINED MUTATION]", "sequence (P35236 whole entry, looked up, stated change not applied, the tested form may be a part)": "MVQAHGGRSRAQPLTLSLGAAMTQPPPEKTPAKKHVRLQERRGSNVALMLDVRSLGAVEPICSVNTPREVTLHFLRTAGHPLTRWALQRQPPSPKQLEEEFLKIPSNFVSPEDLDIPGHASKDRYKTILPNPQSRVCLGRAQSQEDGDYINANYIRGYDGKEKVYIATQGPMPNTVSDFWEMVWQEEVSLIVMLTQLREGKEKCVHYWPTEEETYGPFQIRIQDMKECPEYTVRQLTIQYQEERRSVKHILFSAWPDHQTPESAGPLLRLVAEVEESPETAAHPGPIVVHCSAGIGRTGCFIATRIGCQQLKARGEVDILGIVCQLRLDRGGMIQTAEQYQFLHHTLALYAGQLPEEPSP", "assay": "Inhibition of allosterically sensitized mutant form of His6-tagged human wild-type HePTP catalytic domain at 1.92 uM using pNPP as substrate incubated for 90 mins by quenched phosphatase activity assay"}, "[2]": {"tested_on": "T1, Tyrosine-protein phosphatase non-receptor type 1 (Homo sapiens), P18031 [P87C,A122C]", "T1 sequence (whole entry)": "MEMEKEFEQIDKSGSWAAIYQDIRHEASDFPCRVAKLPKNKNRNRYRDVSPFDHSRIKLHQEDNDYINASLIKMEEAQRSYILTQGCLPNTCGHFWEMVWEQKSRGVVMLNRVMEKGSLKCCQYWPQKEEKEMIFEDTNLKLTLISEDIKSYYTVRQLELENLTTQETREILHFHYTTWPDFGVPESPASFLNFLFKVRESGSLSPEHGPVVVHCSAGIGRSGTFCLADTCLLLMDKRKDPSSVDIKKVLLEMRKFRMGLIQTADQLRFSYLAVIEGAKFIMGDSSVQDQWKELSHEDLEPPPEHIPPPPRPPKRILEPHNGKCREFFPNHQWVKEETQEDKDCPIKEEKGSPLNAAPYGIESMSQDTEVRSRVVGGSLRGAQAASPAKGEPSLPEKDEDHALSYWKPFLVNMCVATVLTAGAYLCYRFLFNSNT", "assay": "Inhibition of allosterically sensitized His6-tagged human PTP1B catalytic domain P87C/A122C mutant at 250 nM using pNPP as substrate incubated for 90 mins by quenched phosphatase activity assay"}, "[3]": {"tested_on": "T2, Tyrosine-protein phosphatase non-receptor type 7 (Homo sapiens), P35236 [P171C,V205C]", "T2 sequence (whole entry)": "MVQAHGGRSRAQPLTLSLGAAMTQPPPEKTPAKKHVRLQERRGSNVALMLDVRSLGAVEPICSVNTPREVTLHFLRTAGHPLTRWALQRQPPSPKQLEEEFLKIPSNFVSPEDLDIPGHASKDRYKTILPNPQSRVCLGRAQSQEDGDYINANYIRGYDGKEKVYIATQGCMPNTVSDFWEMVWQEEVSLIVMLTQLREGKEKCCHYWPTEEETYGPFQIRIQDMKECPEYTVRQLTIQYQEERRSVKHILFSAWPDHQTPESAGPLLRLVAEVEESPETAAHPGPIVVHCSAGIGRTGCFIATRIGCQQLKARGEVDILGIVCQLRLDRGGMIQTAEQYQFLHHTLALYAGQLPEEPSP", "assay": "Inhibition of allosterically sensitized mutant form of His6-tagged human HePTP catalytic domain at 500 nM using pNPP as substrate incubated for 90 mins by quenched phosphatase activity assay"}, "Homo sapiens": {"species": "Homo sapiens", "assay": "Inhibition of His6-tagged human wild-type PTP catalytic domain at 500 nM using pNPP as substrate incubated for 90 mins by quenched phosphatase activity assay"}, "[4]": {"target": "Tyrosine-protein phosphatase non-receptor type 6 (Homo sapiens) (UniProt P29350)", "sequence (P29350 whole entry, the tested form may be a part)": "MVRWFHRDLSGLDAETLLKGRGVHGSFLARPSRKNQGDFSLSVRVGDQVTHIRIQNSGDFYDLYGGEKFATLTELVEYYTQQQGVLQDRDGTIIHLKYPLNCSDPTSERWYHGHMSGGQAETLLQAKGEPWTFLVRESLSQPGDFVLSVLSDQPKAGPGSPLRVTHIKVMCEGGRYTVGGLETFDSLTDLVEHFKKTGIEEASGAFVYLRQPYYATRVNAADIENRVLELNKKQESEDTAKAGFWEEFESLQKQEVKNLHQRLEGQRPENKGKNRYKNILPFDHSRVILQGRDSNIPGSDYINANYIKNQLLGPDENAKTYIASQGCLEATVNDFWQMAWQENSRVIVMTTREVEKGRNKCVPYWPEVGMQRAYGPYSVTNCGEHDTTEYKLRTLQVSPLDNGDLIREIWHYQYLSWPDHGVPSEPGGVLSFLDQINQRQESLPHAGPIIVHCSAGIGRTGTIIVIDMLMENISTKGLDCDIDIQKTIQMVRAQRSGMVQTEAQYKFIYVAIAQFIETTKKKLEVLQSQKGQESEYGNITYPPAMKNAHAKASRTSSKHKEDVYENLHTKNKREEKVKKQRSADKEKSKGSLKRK", "assay": "Inhibition of allosterically sensitized mutant form of His6-tagged human SHP1 catalytic domain at 500 nM using pNPP as substrate incubated for 90 mins by quenched phosphatase activity assay"}, "[5]": {"target": "T3, Tyrosine-protein phosphatase non-receptor type 11 (Homo sapiens) (UniProt Q06124)", "T3 sequence (whole entry)": "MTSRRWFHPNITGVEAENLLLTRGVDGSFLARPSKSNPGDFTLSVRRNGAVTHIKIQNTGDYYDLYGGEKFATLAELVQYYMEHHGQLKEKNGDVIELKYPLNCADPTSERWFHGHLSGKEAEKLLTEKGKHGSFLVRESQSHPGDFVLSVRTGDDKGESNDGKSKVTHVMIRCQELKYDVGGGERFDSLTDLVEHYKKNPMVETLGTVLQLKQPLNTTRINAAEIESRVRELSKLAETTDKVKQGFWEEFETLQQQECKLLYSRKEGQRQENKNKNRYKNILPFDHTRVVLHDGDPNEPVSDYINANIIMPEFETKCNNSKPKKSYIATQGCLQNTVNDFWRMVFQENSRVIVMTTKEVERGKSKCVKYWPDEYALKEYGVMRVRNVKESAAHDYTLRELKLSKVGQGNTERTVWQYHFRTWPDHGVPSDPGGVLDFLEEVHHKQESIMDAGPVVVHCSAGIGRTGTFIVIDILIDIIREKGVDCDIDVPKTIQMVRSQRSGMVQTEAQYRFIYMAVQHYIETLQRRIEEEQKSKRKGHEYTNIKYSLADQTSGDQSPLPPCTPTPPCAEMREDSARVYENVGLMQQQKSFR", "assay": "Inhibition of allosterically sensitized mutant form of His6-tagged human SHP2 catalytic domain at 500 nM at 500 nM using pNPP as substrate incubated for 90 mins by quenched phosphatase activity assay"}, "[6]": {"target": "Tyrosine-protein phosphatase non-receptor type 13 (Homo sapiens) (UniProt Q12923)", "sequence (Q12923 whole entry, the tested form may be a part)": "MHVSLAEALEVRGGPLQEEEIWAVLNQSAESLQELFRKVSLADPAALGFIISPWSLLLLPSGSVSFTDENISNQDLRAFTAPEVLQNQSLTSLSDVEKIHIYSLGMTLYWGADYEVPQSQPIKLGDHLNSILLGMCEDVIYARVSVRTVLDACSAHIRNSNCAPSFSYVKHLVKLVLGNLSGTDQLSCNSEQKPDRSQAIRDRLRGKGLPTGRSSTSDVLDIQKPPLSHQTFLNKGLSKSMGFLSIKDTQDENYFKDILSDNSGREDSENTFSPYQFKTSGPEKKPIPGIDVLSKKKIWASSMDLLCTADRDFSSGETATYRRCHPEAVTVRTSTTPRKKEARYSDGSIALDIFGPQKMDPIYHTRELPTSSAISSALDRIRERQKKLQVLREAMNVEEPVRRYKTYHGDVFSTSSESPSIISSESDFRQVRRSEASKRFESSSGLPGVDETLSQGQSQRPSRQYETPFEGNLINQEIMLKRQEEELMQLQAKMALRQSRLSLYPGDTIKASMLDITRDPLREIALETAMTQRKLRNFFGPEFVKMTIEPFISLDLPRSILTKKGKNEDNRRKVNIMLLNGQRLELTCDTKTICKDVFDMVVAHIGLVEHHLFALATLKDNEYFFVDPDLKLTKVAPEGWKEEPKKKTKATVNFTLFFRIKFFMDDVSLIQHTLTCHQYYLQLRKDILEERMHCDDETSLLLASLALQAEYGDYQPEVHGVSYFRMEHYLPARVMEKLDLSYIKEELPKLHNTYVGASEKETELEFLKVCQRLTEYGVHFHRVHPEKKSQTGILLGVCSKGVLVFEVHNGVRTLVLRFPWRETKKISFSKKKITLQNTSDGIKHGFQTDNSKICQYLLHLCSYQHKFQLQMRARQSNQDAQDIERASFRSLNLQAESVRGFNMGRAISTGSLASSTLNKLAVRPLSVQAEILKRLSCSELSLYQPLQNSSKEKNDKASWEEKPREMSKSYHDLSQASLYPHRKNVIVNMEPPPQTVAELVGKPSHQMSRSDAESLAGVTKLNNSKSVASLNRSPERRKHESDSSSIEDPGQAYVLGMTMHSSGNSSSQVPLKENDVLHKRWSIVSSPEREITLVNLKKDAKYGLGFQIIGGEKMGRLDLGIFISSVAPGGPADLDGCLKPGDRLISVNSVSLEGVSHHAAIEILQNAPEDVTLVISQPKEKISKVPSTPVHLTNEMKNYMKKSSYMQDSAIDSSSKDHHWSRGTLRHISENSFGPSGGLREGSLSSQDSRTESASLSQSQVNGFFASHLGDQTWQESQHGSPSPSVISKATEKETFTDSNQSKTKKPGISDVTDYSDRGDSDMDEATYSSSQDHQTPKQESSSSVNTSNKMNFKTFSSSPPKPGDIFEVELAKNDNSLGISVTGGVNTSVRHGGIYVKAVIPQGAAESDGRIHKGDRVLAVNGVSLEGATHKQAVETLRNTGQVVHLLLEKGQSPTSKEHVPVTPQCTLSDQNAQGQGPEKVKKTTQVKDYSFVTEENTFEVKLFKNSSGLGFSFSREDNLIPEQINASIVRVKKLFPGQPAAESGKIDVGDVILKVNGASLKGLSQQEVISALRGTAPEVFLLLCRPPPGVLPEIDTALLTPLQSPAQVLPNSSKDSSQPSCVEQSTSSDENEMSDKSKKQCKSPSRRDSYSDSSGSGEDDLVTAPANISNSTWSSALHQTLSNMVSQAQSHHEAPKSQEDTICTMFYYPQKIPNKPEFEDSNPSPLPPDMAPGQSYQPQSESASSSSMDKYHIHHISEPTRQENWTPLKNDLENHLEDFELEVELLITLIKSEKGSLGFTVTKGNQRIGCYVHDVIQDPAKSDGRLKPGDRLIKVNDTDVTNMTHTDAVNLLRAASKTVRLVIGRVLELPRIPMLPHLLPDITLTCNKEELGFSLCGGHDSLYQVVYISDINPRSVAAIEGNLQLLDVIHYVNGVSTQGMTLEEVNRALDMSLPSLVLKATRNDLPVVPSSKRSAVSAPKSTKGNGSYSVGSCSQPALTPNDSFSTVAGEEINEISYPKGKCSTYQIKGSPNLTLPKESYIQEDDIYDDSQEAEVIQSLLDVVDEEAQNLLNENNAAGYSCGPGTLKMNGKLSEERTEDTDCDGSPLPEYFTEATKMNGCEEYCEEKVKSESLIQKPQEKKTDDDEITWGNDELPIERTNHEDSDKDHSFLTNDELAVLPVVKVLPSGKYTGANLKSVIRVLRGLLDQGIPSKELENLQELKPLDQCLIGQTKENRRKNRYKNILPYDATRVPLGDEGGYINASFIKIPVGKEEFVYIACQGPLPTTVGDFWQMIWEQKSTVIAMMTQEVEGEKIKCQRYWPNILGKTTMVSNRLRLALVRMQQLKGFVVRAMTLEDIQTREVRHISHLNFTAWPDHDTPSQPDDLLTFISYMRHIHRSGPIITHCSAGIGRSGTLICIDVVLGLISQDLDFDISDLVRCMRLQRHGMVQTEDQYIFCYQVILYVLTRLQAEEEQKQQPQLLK", "assay": "Inhibition of allosterically sensitized mutant form of His6-tagged human FAP1 catalytic domain at 500 nM using pNPP as substrate incubated for 90 mins by quenched phosphatase activity assay"}, "[7]": {"target": "T3, Tyrosine-protein phosphatase non-receptor type 11 (Homo sapiens)", "assay": "Inhibition of allosterically sensitized mutant form of His6-tagged human SHP2 containing SHP1 and […] SH2 domain at 500 nM at 500 nM using pNPP as substrate incubated for 90 mins by quenched phosphatase activity assay"}, "[8]": {"tested_on": "T2, Tyrosine-protein phosphatase non-receptor type 7 (Homo sapiens), P35236 [P171C,V205C]", "assay": "Inhibition of allosterically sensitized mutant form of His6-tagged human HePTP catalytic domain using pNPP as substrate incubated for 90 mins by quenched phosphatase activity assay"}, "[9]": {"target": "T4, Tyrosine-protein phosphatase non-receptor type 7 (Homo sapiens) (UniProt P35236)", "T4 sequence (whole entry)": "T2 sequence (whole entry) with C171P, C205V", "assay": "Inhibition of His6-tagged human wild-type HePTP catalytic domain at 1 uM using pNPP as substrate incubated for 90 mins by quenched phosphatase activity assay"}, "[10]": {"tested_on": "T2, Tyrosine-protein phosphatase non-receptor type 7 (Homo sapiens), P35236 [P171C,V205C]", "assay": "Inhibition of allosterically sensitized mutant form of His6-tagged human HePTP catalytic domain at 1 uM using pNPP as substrate measured up to 10 mins by quenched phosphatase activity assay"}}, "note": "Positions count from the first letter of the chain named. Activity calls are given as the source filed them. The rule behind the calls is not given here."}
{"compound": "O=C(O)c1ccc(-c2c3ccc(=O)c([As]4SCCS4)c-3oc3c([As]4SCCS4)c(O)ccc23)c(C(=O)O)c1", "values": [{"measurement": "inhibition", "setting": "[1]", "value": "Active"}]}
{"compound": "CCc1cc2c(-c3ccccc3C(=O)O)c3cc(CC)c(=O)c([As]4SCCS4)c-3oc2c([As]2SCCS2)c1O", "values": [{"measurement": "inhibition", "setting": "[1]", "value": "Active"}]}
{"compound": "O=C(O)c1ccccc1-c1c2cc(F)c(=O)c([As]3SCCS3)c-2oc2c([As]3SCCS3)c(O)c(F)cc12", "values": [{"measurement": "inhibition", "setting": "[1]", "value": "Active"}]}
{"compound": "CC1(C)C(/C=C/C=C/C=C2/N(CCCCS(=O)(=O)O)c3ccc([As]4SCCS4)cc3C2(C)C)=[N+](CCCCS(=O)(=O)O)c2ccc([As]3SCCS3)cc21", "values": [{"measurement": "inhibition", "setting": "[2]", "value": "Active"}, {"measurement": "inhibition", "setting": "[3]", "value": "Active"}, {"measurement": "inhibition", "setting": "Homo sapiens", "value": "Active"}, {"measurement": "inhibition", "setting": "[4]", "value": "Active"}, {"measurement": "inhibition", "setting": "[5]", "value": "inactive"}, {"measurement": "inhibition", "setting": "[6]", "value": "Active"}, {"measurement": "inhibition", "setting": "[7]", "value": "inactive"}]}
{"compound": "CCCCNC(=O)c1ccc(-c2c3ccc(=O)c([As]4SCCS4)c-3oc3c([As]4SCCS4)c(O)ccc23)c(C(=O)O)c1", "values": [{"measurement": "inhibition", "setting": "[1]", "value": "Active"}]}
{"compound": "O=C(O)c1c(F)c(F)c(F)c(F)c1-c1c2ccc(=O)c([As]3SCCS3)c-2oc2c([As]3SCCS3)c(O)ccc12", "values": [{"measurement": "inhibition", "setting": "[1]", "value": "Active"}]}
{"compound": "O=C(O)c1ccccc1-c1c2cc(Cl)c(=O)c([As]3SCCS3)c-2oc2c([As]3SCCS3)c(O)c(Cl)cc12", "values": [{"measurement": "inhibition", "setting": "[1]", "value": "Active"}]}
{"compound": "O=c1ccc2nc3ccc(O)c([As]4SCCS4)c3oc-2c1[As]1SCCS1", "values": [{"measurement": "inhibition", "setting": "[2]", "value": "Active"}, {"measurement": "inhibition", "setting": "[3]", "value": "Active"}, {"measurement": "inhibition", "setting": "Homo sapiens", "value": "Active"}, {"measurement": "inhibition", "setting": "[8]", "value": "Dose-dependent effect"}, {"measurement": "inhibition", "setting": "[9]", "value": "inactive"}, {"measurement": "inhibition", "setting": "[10]", "value": 50, "unit": "%"}, {"measurement": "inhibition", "setting": "[4]", "value": "Active"}, {"measurement": "inhibition", "setting": "[6]", "value": "Active"}]}
